One may read the Ki as the dissociation constant of the complex between target and ligand, obtained from inhibition or displacement.

Where two headings read alike, the source gives them in different places.

The source of these data is patent US12527739B2 (Alcon Inc., priority 2022, dated 2026).

In data set [1] the test system is myopia progression. Particulars: higher doses; cited from earlier work.
For data set [2] the following is noted: 5 min, pH 7.4.
Data set [3] concerns the target M3 muscarinic receptor (Homo sapiens, UniProt P20309). As to the kind of experiment: Muscarinic receptor radioligand displacement binding, M3. (In general: Loss of bound radioactivity is the signal in a displacement assay; it reports binding, not function.)
The target in data set [4] is T1, M5 muscarinic receptor (Homo sapiens, UniProt P08912).
T1 sequence (P08912 1-532): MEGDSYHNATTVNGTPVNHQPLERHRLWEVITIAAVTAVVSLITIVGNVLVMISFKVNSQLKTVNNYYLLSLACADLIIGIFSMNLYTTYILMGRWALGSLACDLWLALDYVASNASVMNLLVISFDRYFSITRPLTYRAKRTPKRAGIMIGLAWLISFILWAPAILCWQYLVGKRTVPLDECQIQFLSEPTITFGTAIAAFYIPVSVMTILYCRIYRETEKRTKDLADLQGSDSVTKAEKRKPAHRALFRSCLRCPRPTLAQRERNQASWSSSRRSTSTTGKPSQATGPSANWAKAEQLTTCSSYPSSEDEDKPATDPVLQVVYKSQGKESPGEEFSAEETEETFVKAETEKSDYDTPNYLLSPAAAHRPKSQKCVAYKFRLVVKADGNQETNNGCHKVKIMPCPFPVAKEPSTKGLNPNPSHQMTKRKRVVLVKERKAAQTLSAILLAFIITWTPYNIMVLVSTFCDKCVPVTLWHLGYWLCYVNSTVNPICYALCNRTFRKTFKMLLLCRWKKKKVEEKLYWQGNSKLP
Briefly: Muscarinic receptor radioligand displacement binding, M5.

A short description of data set [5]: pH adjustment of methyl atropine and benzyl atropine solutions, HPLC analysis. Format: physicochemical. Particulars: for Actual concentration (HPLC): after pH adjustment; for Initial pH: before pH adjustment.
Data set [6] has as its target T2, M2 muscarinic receptor (Homo sapiens, UniProt P08172).
T2 sequence (P08172 1-466): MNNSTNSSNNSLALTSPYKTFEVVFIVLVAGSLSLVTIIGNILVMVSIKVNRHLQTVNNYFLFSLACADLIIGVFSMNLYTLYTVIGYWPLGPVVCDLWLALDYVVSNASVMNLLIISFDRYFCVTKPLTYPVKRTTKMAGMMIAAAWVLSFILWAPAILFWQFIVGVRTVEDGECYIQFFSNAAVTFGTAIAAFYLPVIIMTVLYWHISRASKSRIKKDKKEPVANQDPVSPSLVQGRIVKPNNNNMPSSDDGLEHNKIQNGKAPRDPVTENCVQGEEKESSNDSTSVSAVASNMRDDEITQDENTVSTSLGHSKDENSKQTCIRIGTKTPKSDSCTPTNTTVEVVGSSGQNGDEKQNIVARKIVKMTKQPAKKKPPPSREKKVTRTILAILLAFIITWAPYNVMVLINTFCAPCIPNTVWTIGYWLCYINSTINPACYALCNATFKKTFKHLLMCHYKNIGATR
As to the kind of experiment: Muscarinic receptor radioligand displacement binding, M2.

Data set [7] in a line: Methyl atropine in lowered-pH phosphate vehicles with tonicity agents. The data set is classed as physicochemical. The source says:
Therefore, lowering the initial pH value of the vehicles was deemed necessary to: i) ensure higher solubility; and ii) reach an ophthalmically-acceptable target pH (5-8). Also, the addition of tonicity agents was needed to reach the acceptable target range of 280-320 mOsm/kg (Table 4 and Table 5).

Data set [8] addresses T3, M4 muscarinic receptor (Homo sapiens, UniProt P08173).
T3 sequence (P08173 1-479): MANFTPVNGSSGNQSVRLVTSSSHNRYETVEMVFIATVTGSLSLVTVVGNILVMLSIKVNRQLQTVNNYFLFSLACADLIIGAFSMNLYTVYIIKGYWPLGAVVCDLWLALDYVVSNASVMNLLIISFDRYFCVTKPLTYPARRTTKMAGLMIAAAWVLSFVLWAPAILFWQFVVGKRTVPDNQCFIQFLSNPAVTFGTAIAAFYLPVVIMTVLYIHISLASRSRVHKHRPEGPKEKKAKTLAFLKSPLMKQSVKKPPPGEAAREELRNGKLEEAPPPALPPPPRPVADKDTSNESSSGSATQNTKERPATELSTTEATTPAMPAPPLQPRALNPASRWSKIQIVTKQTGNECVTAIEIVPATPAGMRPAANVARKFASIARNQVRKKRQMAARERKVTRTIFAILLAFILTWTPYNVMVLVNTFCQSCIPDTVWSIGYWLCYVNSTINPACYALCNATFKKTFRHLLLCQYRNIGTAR
Briefly: Muscarinic receptor radioligand displacement binding, M4.

The subject of data set [9] is muscarinic receptors. As to the kind of experiment: Binding selectivity across the muscarinic receptors. The conditions noted are these: M1-M5.
The test system of data set [10] is form deprivation-induced myopia (FDM). As to the kind of experiment: Form deprivation-induced myopia (FDM) chick model. The conditions noted are these: FIG. 1 Panel A; for efficacy in FDM chick model: intravitreal injection day 2 and day 4, readout day 5; for change in refractive error (goggled eye value minus ungoggled eye value): with respect to 5% v/v ethanol solution. The data set is classed as in vivo.

Data set [11] addresses T4, M1 muscarinic receptor (Homo sapiens, UniProt P11229).
T4 sequence (P11229 1-460): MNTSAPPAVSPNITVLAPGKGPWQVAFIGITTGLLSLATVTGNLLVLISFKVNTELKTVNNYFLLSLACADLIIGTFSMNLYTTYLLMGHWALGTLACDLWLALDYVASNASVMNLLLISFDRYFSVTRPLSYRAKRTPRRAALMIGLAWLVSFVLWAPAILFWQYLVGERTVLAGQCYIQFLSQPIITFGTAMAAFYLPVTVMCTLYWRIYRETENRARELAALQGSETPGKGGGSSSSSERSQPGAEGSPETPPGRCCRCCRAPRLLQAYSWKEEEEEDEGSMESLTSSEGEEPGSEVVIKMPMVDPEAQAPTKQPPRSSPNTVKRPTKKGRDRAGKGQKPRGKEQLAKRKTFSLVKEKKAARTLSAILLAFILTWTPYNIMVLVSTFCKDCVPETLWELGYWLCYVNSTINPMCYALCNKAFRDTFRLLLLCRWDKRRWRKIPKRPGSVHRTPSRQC
As to the kind of experiment: Muscarinic receptor radioligand displacement binding, M1.

Data set [12] can be described thus: Solubility screen in two simple vehicles, pH 7.4. Particulars: for pH of the formulation: pH 7.4.
The mark [13] stands for this setting: 0.5% Sodium Chloride in 20 mM Phosphate Buffer, pH 2.71.
Setting [14] is: 3% Mannitol in 20 mM Phosphate Buffer, pH 4.8.
Where [15] appears, read: 3.7% Mannitol in 20 mM Phosphate Buffer, pH 2.82.
Setting [16] is: […] Sodium Choride in 20 mM Phosphate Buffer, pH 4.8.

Sequence of M3 muscarinic receptor (P20309 whole entry): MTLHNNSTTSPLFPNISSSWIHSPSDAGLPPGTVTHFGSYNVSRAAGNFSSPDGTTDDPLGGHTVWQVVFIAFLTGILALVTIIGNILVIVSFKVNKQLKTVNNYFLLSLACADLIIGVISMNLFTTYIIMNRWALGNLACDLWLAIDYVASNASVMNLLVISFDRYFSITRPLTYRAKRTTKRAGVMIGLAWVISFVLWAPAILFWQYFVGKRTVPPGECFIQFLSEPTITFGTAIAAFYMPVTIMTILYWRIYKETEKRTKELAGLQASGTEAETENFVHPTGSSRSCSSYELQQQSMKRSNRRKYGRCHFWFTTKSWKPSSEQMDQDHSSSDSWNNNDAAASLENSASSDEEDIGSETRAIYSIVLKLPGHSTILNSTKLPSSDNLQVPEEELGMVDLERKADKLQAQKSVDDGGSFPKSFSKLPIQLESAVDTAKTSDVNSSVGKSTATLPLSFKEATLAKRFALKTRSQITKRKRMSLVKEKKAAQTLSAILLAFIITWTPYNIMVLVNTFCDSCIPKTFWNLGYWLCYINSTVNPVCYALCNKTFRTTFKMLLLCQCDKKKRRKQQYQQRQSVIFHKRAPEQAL

For `CN1[C@@H]2CC[C@H]1C[C@@H](OC(=O)C(CO)c1ccccc1)C2` (mixture of isomers) [Atropine, atropine], the side effects entry in [1] was “pupillary dilation and light sensitivity”.

`C[N+]1(C)[C@@H]2CC[C@H]1C[C@@H](OC(=O)C(CO)c1ccccc1)C2` (stereo partly shown) [Methyl Atropine, methyl atropine]: the Actual Concentration came to 1.63 mg/g in data set [2]; 5.38 mg/g in data set [7] (setting [13]); 5.62 mg/g in data set [7] (setting [14]); 5.14 mg/g in data set [7] (setting [15]); 5.14 mg/g in data set [7] (setting [16]). Also, the Ki in [3] was found to be 2.4 nM; in [4], 2.2 nM; in data set [6] it was 7.8 nM; in [8], 1.2 nM; in data set [11], 3.4 nM. In addition, the “Actual concentration (HPLC)” value in [5] (30 mM Phosphate Buffer, pH 7.4) worked out at 4.61 mg/g; in data set [5] (Phosphate Buffered Saline), 4.89 mg/g. Also, the “Initial pH” value in [5] (30 mM Phosphate Buffer, pH 7.4) worked out at 8.1; in data set [5] (Phosphate Buffered Saline), 9.3. Also, the “Final pH” value is listed as 6.7 in [7] (setting [13]), 8.8 in data set [7] (setting [14]), 6.8 in [7] (setting [15]) and 8.0 in data set [7] (setting [16]). In addition, the Osmolality in data set [7] (setting [13]) came out at 202.5 mOsm/kg; in data set [7] (setting [14]), 217 mOsm/kg; in data set [7] (setting [15]) it was 262.5 mOsm/kg; in [7] (setting [16]) it was 182.5 mOsm/kg. In data set [9], the “selectivity of binding to the muscarinic receptors” value is listed as “non-selective binding”. In data set [10], the “efficacy in FDM chick model” value is listed as “effective”. For the same compound, the “change in refractive error (goggled eye value minus ungoggled eye value)” value in [10] was “significantly decreased”. For the same compound, the “pH of the formulation” value is listed as 9.2 in data set [12] (30 mM Phosphate Buffer) and 9.6 in data set [12] (Phosphate Buffered Saline). Also, the “dissolution in vehicle (in words)” value in [12] (both vehicles: 30 mM phosphate buffer pH 7.4 and phosphate-buffered saline pH 7.4) is recorded as “did not entirely dissolve”.

Turning to `CN1C2CCC1CC(OC(=O)C(F)(CO)c1ccccc1)C2` (stereo not shown) [fluoro-atropine], in data set [10], the “efficacy in FDM chick model” value is recorded as “effective” and the “change in refractive error (goggled eye value minus ungoggled eye value)” value is “significantly decreased”.
